Article PMC12013143, “Ionic liquid-iontophoresis mediates transdermal delivery of sparingly soluble drugs” (Drug Delivery, 2025)
Converted amounts (≈) assume the structure as drawn. “And” between values parts separate entries of the source, which are not always exact repeats. Equal values may be shown once.

Columns and labels:
[1] = In vitro skin permeation/retention with IL alone, horizontal diffusion cells; format: in vitro ADME; details: excised rat skin; for Effect on promoting permeation/retention of indomethacin: 20% IL or 1%SDS (label = vehicle); for Permeation/retention enhancement effect on apremilast: 20% IL (label = IL)
Protocol: (§1) Anesthetize rats by intraperitoneal injection with a dose of 1.0 g/kg urethane solution. Then remove the back hair using a pet shaver. Carefully remove the muscle tissue from the inner side of the skin with a surgical knife, cut it into small pieces, soak it in physiological saline for 30 min, cover the diffusion cell opening, and secure it with a clip. Intact rat skin was positioned between two cells, with the SC facing the donor compartment. The drugs were precisely measured at a weight of 4.00 mg each and subsequently dissolved in 4 mL of ILs or other control solutions, and added in donor compartment. The 0.01 M PBS (pH 6.8, 4.0 mL) was chosen as receptor medium. Sampling of ILs was conducted at various time points, specifically at 0, 4, 6, 8, 10, and 24 h. Following each sampling, 2.0 mL (all receptor medium was removed at the 10-h time point) of receptor medium was replaced with fresh PBS solution. The transdermal penetration of IS or IL-IS was conducted using an electroosmosis apparatus (Dajia DL-Z, China) to ensure a consistent current intensity of 0–0.5 mA. […] A receiving solution (2.0 mL) was collected at 1, 2, 4, 6, 8, and 10 h. After skin permeation experiments, rat skins were subsequently removed from cells, cut into pieces, and immersed in methanol for 12 h. The samples were then diluted with mobile phase at a ratio of 1:10. Following centrifugation for 10 min at 9000 rpm, the resulting supernatants were analyzed using HPLC, as previously described.
(§2) The drug skin permeation amount of solution system was calculated through concentration and volume of each sampling point: Q=[Cn×Vo+∑i=1n−1Ci×V]/S
(§3) In this experiment, Vo: 4.0 mL; V: 2.0 mL (24 h point: 4 mL); S: 0.74 cm^2.
(§4) The drug skin retention amount was calculated as follows: R=M/S

HaCaT cells = assay: Cytotoxicity of ILs, CCK-8 assay; format: cell-based, human; details: 24 h incubation
Protocol: The cytotoxicity of ILs to HaCaT cells was assessed using the Cell Counting Kit 8 (CCK-8) assay. The cell suspension (100 µL) was transferred to a 96-well plate at 8 × 10^3 cells/mL. Then, the 96-well plate was placed in a cell incubator. After 24 h, the medium was removed, and the cells were washed with phosphate-buffered saline (PBS, pH 7.4, 0.1 M). Then, ILs at different concentrations was added to each well for stimulation. After incubation for 24 h, CCK-8 solution (10 µL) was added to each well, followed by incubation for 2 h. The absorbance was measured at 450 nm using a microplate reader (SpectraMax iD5, Molecular Devices, America), and the cell viability was calculated.

[2] = General properties of ILs diluted to 20% (w/w) with water: pH, electrical conductivity, viscosity; format: physicochemical; details: 20%IL in water
Protocol: Viscosity was determined using a viscometer (DV2T, Brookfield, America).

[3] = In vitro skin permeation/retention with iontophoresis (IS) or IL-IS, horizontal diffusion cells; format: in vitro ADME, rat; details: for Effect of current intensity on retention amount / Effect of current intensity on transdermal permeation / Retention in negative current relative to positive current / Permeation in negative current relative to positive current / Increase of transdermal permeation by IL-IS / Increase of transdermal permeation by IL / Permeation applying IL-IS relative to IL alone / Permeation applying IL-IS relative to IS alone: 20% [Cho] [Cin]; for Effect of current intensity on retention amount / Effect of current intensity on transdermal permeation: negative current 0.1–0.3 mA; for Retention in negative current relative to positive current / Permeation in negative current relative to positive current: 0.3 mA; for Permeation in negative current relative to positive current / Increase of transdermal permeation by IL-IS / Increase of transdermal permeation by IL / Increase of transdermal permeation by IS: 10 h cumulative penetration; for Increase of transdermal permeation by IL: no current; for Increase of transdermal permeation by IS: no IL
Protocol: as §1, §2, §3, §4

physchem = details: Solubilities
rat skin = assay: CLSM of rhodamine B penetration into rat skin in vivo, with or without endocytosis inhibitors; details: for Fluorescence intensity after treatment with endocytosis inhibitors: nystatin, indomethacin, chlorpromazine applied 1 h before
[4] = 20% IL (label = IL), negative current 0.3 mA, 10 h
[5] = aripiprazole in 20% IL (label = IL)
[6] = pH 4.5, aqueous buffer, thermodynamic from solid
[7] = pH 6.8, aqueous buffer, thermodynamic from solid
[8] = pH 9, aqueous buffer, thermodynamic from solid
[9] = water, thermodynamic from solid

Row | Cumulative permeation after 24 h ([1]; drug in water) | Skin retention amount after 24 h ([1]; drug in water) [µg/cm^2] | solubility (physchem; [6]) [µg/mL] | solubility (physchem; [7]) [µg/mL] | solubility (physchem; [8]) [µg/mL] | solubility (physchem; [9]) [µg/mL] | Effect of current intensity on transdermal permeation ([3]; 10 h) | Increase of transdermal permeation by IL-IS ([3]; negative current 0.3 mA) | Increase of transdermal permeation by IL [3] | Increase of transdermal permeation by IS ([3]; negative current 0.3 mA) | Permeation applying IL-IS relative to IL alone ([3]; negative current 0.3 mA, 10 h) | Compound | Electric conductivity [2] [ms/cm] | Viscosity [2] [mPa·s] | Effect of current intensity on retention amount ([3]; 10 h) | also measured
1 | – | – | – | – | – | – | – | – | – | – | – | CCCCCCCCCCCCOS(=O)(=O)[O-].[Na+] [1%SDS, sodium dodecyl sulfate] | – | – | – | Effect on promoting permeation/retention of indomethacin ([1]; 24 h): no significant effect
2 | – | – | – | – | – | – | – | – | – | – | – | CC(=O)[O-].C[N+](C)(C)CCO [[Cho] [Ace]] | 32.12 ± 0.03 | 1.69 ± 0.08 | – | Permeation/retention enhancement effect on apremilast ([1]; 24 h): did not have significant permeation/retention enhancement effects; 24 h cumulative permeability of indomethacin relative to water ([1]; indomethacin in 20% IL (label = IL)): 4.8 times; Cytotoxicity of ILs, descending order (from LD 50) (HaCaT cells): [Cho] [Ole] > [Cho] [Cin] > [Cho] [Ger] > [Cho] [Ace] > [Cho] [Tar]; pH [2]: 9.37 and 9.37 ± 0.01; Permeation enhancement effect on aripiprazole when IL-IS applied [3, 4]: did not have significant permeation enhancement effects
3 | – | – | – | – | – | – | – | – | – | – | – | C[N+](C)(C)CCO.O=C([O-])/C=C/c1ccccc1 [[Cho] [Cin]] | 18.60 ± 0.06 | 1.97 ± 0.04 | – | Permeation of aripiprazole after 24 h, in words [1, 5]: did not show a significant difference; Skin retention of aripiprazole after 24 h, in words [1, 5]: surpassed that of other ILs; pH [2]: 8.27 and 8.27 ± 0.01; Increase of 10 h cumulative permeation of aripiprazole with IL-IS compared to IL or IS alone ([3]; 20% IL (label = IL), negative current 0.3 mA): 14 fold
4 | – | – | – | – | – | – | – | – | – | – | – | C[N+](C)(C)CCO.O=C([O-])C(O)C(O)C(=O)O (stereo not drawn) [[Cho] [Tar]] | 28.74 ± 0.01 | 1.48 ± 0.01 | – | Permeation/retention enhancement effect on apremilast ([1]; 24 h): did not have significant permeation/retention enhancement effects; Effect on promoting permeation/retention of indomethacin ([1]; 24 h): no significant effect; Permeation enhancement effect on aripiprazole when IL-IS applied [3, 4]: did not have significant permeation enhancement effects
5 | 8.1 µg/cm^2 | 6.1 | 18.3 ± 7.2 (≈ 39.7 µM) | 13.5 ± 0.5 (≈ 29.3 µM) | 6.8 ± 1 (≈ 14.8 µM) | 21.8 ± 3.8 (≈ 47.3 µM) | not significantly enhanced | 16 fold | 31 fold | little effect | – | CCOc1cc([C@@H](CS(C)(=O)=O)N2C(=O)c3cccc(NC(C)=O)c3C2=O)ccc1OC [apremilast] | – | – | did not result in a significant difference | Transdermal permeation versus [Cho] [Cin] concentration ([1]; IL alone, 24 h): linear correlation; Skin retention amount versus [Cho] [Cin] concentration ([1]; [Cho] [Cin] 0–20%, IL alone): no significant change; solubility (physchem): 21.8 ± 3.8 µg/mL (≈ 47.3 µM); Retention in negative current relative to positive current ([3]; 10 h): ~3.4 fold; Permeation in negative current relative to positive current [3]: about 3.2 fold
6 | negligible | 1.1 | 152 ± 16.3 (≈ 338 µM) | 8.5 ± 3.2 (≈ 19 µM) | 0.79 ± 0.5 (≈ 1.76 µM) | 0.94 ± 0.15 (≈ 2.1 µM) | positive linear correlation | 14 fold | little effect | little effect | about 14 fold | O=C1CCc2ccc(OCCCCN3CCN(c4cccc(Cl)c4Cl)CC3)cc2N1 [aripiprazole] | – | – | did not result in a significant difference | Cumulative permeation after 24 h ([1]; drug in 1% SDS): 0.35 µg/cm^2; Skin retention amount after 24 h ([1]; drug in 1% SDS): 2.6 µg/cm^2; Retention in negative current relative to positive current ([3]; 10 h): ~3.0 fold; Permeation in negative current relative to positive current [3]: ~5.0 fold; Transdermal penetration versus [Cho] [Cin] concentration under IL-IS ([3]; [Cho] [Cin] 0–20%, negative current 0.3 mA, 10 h): increase with the rise in the concentration; Permeation at different pH values ([3]; pH 4.5, pH 6.8 and pH 9.0, 10 h, IS-related factors): no significant change
7 | – | – | – | – | – | – | – | – | – | – | ~16.5 fold | CN(Cc1ccc(C(C)(C)C)cc1)Cc1cccc2ccccc12 [butenafine] | – | – | – | Permeation applying IL-IS relative to IS alone ([3]; negative current 0.3 mA, 10 h): ~11.0 fold
8 | 10.06 µg/cm^2 | 6.1 | 2630 ± 648 (≈ 7350 µM) | 21.5 ± 5.7 (≈ 60.1 µM) | 2230 ± 136 (≈ 6230 µM) | 28.5 ± 0.7 (≈ 79.7 µM) | not significantly enhanced | little effect | 3.3 fold | 1.6 fold | – | COc1ccc2c(c1)c(CC(=O)O)c(C)n2C(=O)c1ccc(Cl)cc1 [indomethacin] | – | – | did not result in a significant difference | –
9 | – | – | – | – | – | – | – | – | – | – | – | CCN(CC)c1ccc2c(-c3ccccc3C(=O)O)c3ccc(=[N+](CC)CC)cc-3oc2c1 [rhodamine B] | – | – | – | Fluorescence intensity after treatment with endocytosis inhibitors (rat skin; IL, IS and IL-IS groups): partially suppressed; Fluorescence intensity after treatment with endocytosis inhibitors (rat skin; control gel group): no substantial alteration; Transmission pathway in skin (overlap with DAPI) (rat skin; rat skin in vivo, 10 h): primarily occurred through accessory organs; CLSM fluorescence intensity and depth in skin, order of treatments (rat skin; rat skin in vivo, 10 h, control gel, IL gel, IS, IL-IS): IL-IS > IS > IL > Control
10 | – | – | – | – | – | – | – | – | – | – | ~2.6 fold | COc1cc2nc(N3CCN(C(=O)C4CCCO4)CC3)nc(N)c2cc1OC (stereo not drawn) [terazosin] | – | – | – | Permeation applying IL-IS relative to IS alone ([3]; negative current 0.3 mA, 10 h): ~5.2 fold
